Results published in US20110136768A1 (THE GENERAL HOSPITAL CORPORATION, priority 2008, published 2011).
Structures can show the parent of a compound that is named as a salt.

Experiments:
[1] = test system: patients with NSF; details: two patients; cited from earlier work
[2] = test system: patients with NSF; test: Adverse effects in the two treated NSF patients; type: in vivo, human; details: both patients
Experimental: (§1) Two patients diagnosed with NSF that was associated with gadolinium exposure were assessed and treated with orally administered imatinib mesylate over an extended period of time. Their progress was assessed as were any side effects of the treatment.
Patient 1 developed gastrointestinal upset that resolved when corticosteroid replacement with 7.5 mg/day oral prednisone was initiated to treat adrenal insufficiency 17 weeks after re-initiation of IM, despite continuation of IM.

[3] = test system: patients with NSF; test: Skin biopsy histology before and after IM (hematoxylin & eosin, type I procollagen staining); type: in vivo, human
Description: FIG. 2 (A and B) are photographs of skin biopsies from Patient 1 before (FIG. 2A) and after 15 weeks (FIG. 2B) of treatment with IM, at similar magnification and under equivalent lighting. […] (hematoxylin & eosin staining, 12.5× total magnification). The grey line in each panel identifies the level of the eccrine ducts, structures that occur at a relatively uniform depth in a particular region of the body.
FIG. 3 (A and B) are photographs of skin biopsies from Patient 1 before (FIG. 3A) and after 15 weeks (FIG. 3B) of treatment with IM, at similar magnification and under equivalent lighting. […] (type I procollagen immunohistochemical staining, 12.5× magnification) The grey line in each panel identifies the level of the eccrine ducts.
Skin biopsies performed both before and after initial dosing of Patient 1 with IM were compared. Both specimens were obtained from the same anatomic area, with the second biopsy taken immediately adjacent to the resolved scar from the prior procedure, but each biopsy had been performed using different technique (The first biopsy was an excisional biopsy, the second was a punch biopsy). […] Furthermore, in the specimen obtained after IM treatment, fewer type I procollagen^+ cells were present in the upper dermis (FIG. 3B). The second biopsy contained 124 ppm (μg/g, dry weight) of gadolinium, essentially unchanged from that of the pretreatment biopsy (High et al.: Gadolinium is quantifiable within the tissue of patients with nephrogenic systemic fibrosis, J Am Acad Dermatol 2007).

[4] = test system: patients with NSF; test: Knee joint flexion contracture measured with a goniometer in treated NSF patients; type: in vivo, human
Experimental: as §1
Loss of knee joint extension (flexion contracture) was assessed by measuring maximal passive knee extension, with the patient in a supine position, using a goniometer. The center of the goniometer was placed at the lateral femoral condyle, with the proximal arm positioned along the longitudinal axis of the femur and the distal arm aligned with the long axis of the tibia. Measurements were rounded to the nearest multiple of 5 degrees. Although flexion contractures appeared symmetric in both patients, the knee with the greater flexion contracture at baseline was assessed for change at subsequent visit.

[5] = test system: patients with NSF; test: Skin involvement by modified Rodnan skin score (mRSS) in treated NSF patients; type: in vivo, human
Experimental: as §1
They were offered treatment with imatinib mesylate. […] Shortly thereafter, […] PD catheter stopped functioning and they began to undergo HD.
To determine whether a higher dose of IM might yield further improvement in their skin changes, their daily dose was increased from 400 mg to 600 mg at the end of January 2007. Because of a hospitalization in February 2007, for evaluation and treatment of chronic gastrointestinal bleeding, they stopped taking IM for 2 weeks. They resumed taking daily oral IM 600 mg, one week later, but they again stopped taking it after 6 days, when they underwent elective surgical repair of an abdominal hernia. They once again resumed taking oral IM 400 mg daily in May 2007. However, because of difficulty controlling their INR, they discontinued IM two weeks later. Off of IM, their Coumadin anticoagulation has been managed more easily.
Skin involvement was assessed using the modified version of the Rodnan skin score (mRSS). The same examiner evaluated each patient at each visit. Seventeen skin sites were evaluated: the face, upper arms, […], dorsum of the hands, fingers, chest, abdomen, thighs, […], and feet. Each site was graded: 0=normal skin, 1=thickened skin, 2=thickened and unable to pinch, or 3=thickened and unable to move. The maximum total score is 51.

| SMILES | skin thickening and joint mobility [1] | congestive heart failure [2] | adverse effect related to IM ([2]; corrected by dialysis treatment) | staining for type I procollagen in skin biopsy ([3]; Patient 1, after 15 weeks of IM versus before) | fibrosis in skin biopsy ([3]; Patient 1, after 15 weeks of IM versus before, hematoxylin & eosin) | type I procollagen+ cells in the upper dermis ([3]; Patient 1, after IM treatment versus before) | knee joint flexion contractures ([4]; Patient 1, off IM for 9 weeks, both knees) [°] | knee joint flexion contractures ([4]; Patient 1, week 6 of IM, with physical therapy) [°] | knee joint flexion contractures ([4]; Patient 1, week 15 of IM, with physical therapy) [°] | knee joint flexion contractures ([4]; Patient 2, after discontinuing IM, none when they began IM) | mRSS ([5]; Patient 1, after oral IM 400 mg daily over 15 weeks) | mRSS ([5]; Patient 1, after subsequent 9 weeks without IM) | mRSS ([5]; Patient 1, baseline before oral IM 400 mg daily, maximum total score 51) | mRSS ([5]; Patient 1, within 5 weeks of resuming oral IM 400 mg daily (from 33)) | mRSS ([5]; Patient 2, baseline before oral IM 400 mg daily) | mRSS ([5]; Patient 2, while taking oral IM 400 mg daily) | mRSS ([5]; Patient 2, within 5 weeks of stopping IM) |
| --- | --- | --- | --- | --- | --- | --- | --- | --- | --- | --- | --- | --- | --- | --- | --- | --- | --- |
| CC(=O)CCCCn1c(=O)c2c(ncn2C)n(C)c1=O [pentoxyphyline] | Decreased skin thickening and improved joint mobility | – | – | – | – | – | – | – | – | – | – | – | – | – | – | – | – |
| Cc1ccc(NC(=O)c2ccc(CN3CCN(C)CC3)cc2)cc1Nc1nccc(-c2cccnc2)n1 [imatinib mesylate] | – | Neither patient developed congestive heart failure | fluid retention | less staining for type I procollagen | less fibrosis | fewer | 25 | 25 | 10 | knee joint flexion contractures developed that gradually progressed over time | 16 | 33 | 42 | 10 | 12 | 2 | 15 |
